Where two headings read alike, the source gives them in different places.
Legend:
Balb/c Nu/Nu mice = experiment: Intratibial injection of compounds, micro-CT trabecular bone volume; format: in vivo; conditions: 10 μl into tibial marrow space, 3 weeks, μCT; compared to the maternal BP compound; preliminary data; FIG. 8
Experimental: Four week old female Balb/c Nu/Nu mice were housed under pathogen free conditions, in accordance with the guidelines approved by the Institute of Medical and Veterinary Science animal ethics research committee. Mice were randomly assigned into 3 groups of 4 animals. The left tibia was wiped with 70% ethanol and a 26 gauge needle coupled to a Hamilton syringe, was inserted through the tibial plateau with the knee flexed and 10 μl of each drug injected into the marrow space. Mice were humanely killed 3 weeks post drug administration and bone morphometric parameters were assessed using high resolution micro-CT and histology.
• Group 1: Bpp(OEt) (BP) (20 μM) • Group 2: γ-Tocotrienol (20 μM) • Group 3: γ-Tocotrienol-BP conjugate (20 μM) Micro-Computer Tomography Analysis
Both the right and left tibiae of each animal were mounted in the CT specimen tube and placed securely into the SkyScan-1072 X-ray micro-CT Scanner (Aartselaar, Belgium). The program was commenced with magnification set to give scan slices of 5.2 microns. Three-dimensional (3D) images were generated using Cone-Beam reconstruction and 3D visualisation (Skyscan). Using the two dimensional (2D) images obtained from the micro-CT scan, the growth plate was identified and 750 sections, starting from the growth plate/tibial interface and moving down the tibia, were selected. […]

[1] = test system: mature osteoclasts isolated from human Giant Cell Tumours (GCT) of bone; experiment: Bone resorption by mature osteoclasts from Giant Cell Tumours of bone; format: cell-based; conditions: osteoclasts from human GCT of bone on whale dentine, 5 days
Text: (§1) Human peripheral blood mononuclear cells (PBMCs) and the RAW264.7 murine monocytic cell line were differentiated into osteoclast-like cells in the presence of RANKL plus M-CSF and have been used as model systems of osteoclastogenesis. Osteoclast-like cells, from Giant Cell Tumours (GCT) of bone specimens from three independent donors were used to investigate the effect of compounds of the invention on the bone resorbing activity of mature osteoclasts.
To determine the effect of compounds of the invention on bone resorbing activity of mature osteoclast, cultured cells isolated from primary human Giant Cell Tumours of bone specimens were used. These cells were plated on whale dentine slices in 96-well plates at a density of 1×10^5/well and treated for 5 days with increasing concentrations of compounds of the invention. Medium and treatments were replaced on day three and pit formation determined on day 5.
Whale dentine slices will be washed in extran, rinsed with distilled water, washed in 70% ethanol and dried overnight. […] Images will be analysed using ImageQuant software and the area of resorption determined for each dentine slice (quadruplicate dentine slices for each treatment). Results are expected to be average resorption area +/− standard errors of the mean (SEM) and the significant differences between treatments will be determined using Students t-tests (2-tailed, unpaired).

MDA-MB231 cells = experiment: Cell viability, crystal violet colorimetric assay; format: cell-based; conditions: 72 hrs; for IC50: tested at 0.02-0.1 mM
Experimental: (§2) Immortalised osteolytic metastatic breast cancer cell lines, a) hormone-dependent MCF-7 and b) hormone refractory MDA-MB231, together with the daughter line MDA-MB231TXSA were incubated with 5 gradual concentrations of compounds of the invention as described below. Cell viability was assessed with the crystal violet colorimetric assay and IC50s were evaluated.
(§3) Medium was removed from cell cultures and cells were fixed with 4% v/v formaldehyde for 5 mins at room temperature. Formalin was then removed and CV added for 10 mins at room temperature followed by several washes with dsH2O. Samples were allowed to dry overnight. The following day, 10% acetic acid was added for 15 mins and optical density at 620 nm was measured. Optical densities versus compound concentrations were plotted in graphs and IC50s estimated by linear regression analysis using the WorkOut (VictorX4) software.
(§4) MCF-7, MDA-MB231 and MDA-MB231TXSA cells were seeded in 96-well-plates and allowed to attach overnight. The following day media were replaced with fresh media containing the following compounds: Both free tetraethyl methylbisphosphonate (bpp(OEt)) and bpp(OEt) in 1:1 combination with the free chromanol and the biphosphonate conjugates were tested at 5 gradual concentrations of: 0.02, 0.04, 0.06, 0.08 and 0.1 mM.
(§5) Cells were cultured in the presence of the compounds for 72 hrs and viability was assessed on day 3 by crystal violet assay. The cell lines were selected for their high bone metastatic potential. The fluorescently transfected line MB231TXSA, derived from line MB231 is also used in animal studies (WP7).

MDA-MB231TXSA cells = experiment: Cell viability, crystal violet colorimetric assay; format: cell-based; conditions: 72 hrs; for IC50: tested at 0.02-0.1 mM, read-out: IC50 values MB231-TXSA
Experimental: as §2, §3, §4, §5

[2] = test system: osteoclasts from RAW264.7 and Human PBMC; experiment: Resorption on pre-loaded whale dentine / osteologic slides (pit formation); format: cell-based, murine; conditions: for effect on differentiation and activity of osteoclasts: summary statement
Text: Zoledronic acid was used as control.
as §1
Human PBMCs were isolated from normal healthy donors isolated from the buffy coats acquired from the local Red Cross Blood Service. The cells were diluted in Hanks Balanced Salt Solution (HBSS) and separated by gradient centrifugation with Lymphoprep™. Isolated cells were resuspended in α MOD, 10% FCS, L-glutamine (2 mM), Hepes (20 mM), supplemented with M-CSF (25 ng/ml), 1α,25(OH)2 vitamin D3 (10 nM) and dexamethasone (10 nM) and plated into 96-well plates containing whale dentine slices, for the bone resorption assay or directly into wells for TRAP staining. The following day, media were removed and replaced with media as above, supplemented with RANKL (100 ng/ml) in the presence or absence of increasing concentrations of compounds of the invention. Medium and treatments were replaced every three days.
Cells were cultured in 96-well plates at a density of 1×10^4 cells/well in DMEM medium with 10% FCS, L-glutamine (2 mM) and Hepes (20 mM). Cells were allowed to attach for 4 hrs before treatment with RANKL (50 ng/ml) in the presence or absence of increasing concentrations of compounds of the invention as above. Medium and treatments were replaced on day three and TRAP activity determined on day 5. The overall number of viable cells were determined by crystal violet staining.
Whale dentine slices will be washed in extran, rinsed with distilled water, washed in 70% ethanol and dried overnight. The dentine slices mounted on stubs, carbon-coated and visualised on a Philips XL-20 scanning electron microscope, (SEM) as previously described. Images will be analysed using ImageQuant software and the area of resorption determined for each dentine slice (quadruplicate dentine slices for each treatment). Results are expected to be average resorption area +/− standard errors of the mean (SEM) and the significant differences between treatments will be determined using Students t-tests (2-tailed, unpaired).
(§6) In a separate experiment, pre-loaded bone slices (whale dentine) or commercial forms of hydroxyapatite (osteologic slides) with either free γ-tocopherol (γToc) or γ-tocopherol-bpp(OEt) (BP-γToc) and then washed away unbound drug.

[3] = Binding to pre-loaded bone slices / hydroxyapatite after washing; conditions: pre-loaded whale dentine or osteologic slides, unbound drug washed away
Text: as §6

| SMILES | trabecular bone volume at the site of injection (Balb/c Nu/Nu mice) | bone resorption by already mature osteoclasts [1] | EC50 (MDA-MB231 cells; Exp.1, * denotes EC50 value, read-out: EC50 value (starred) MB231) [µM] | IC50 (MDA-MB231 cells; Exp.2) [µM] | IC50 (MDA-MB231TXSA cells; Exp.1) [µM] | IC50 (MDA-MB231TXSA cells; Exp.2, unstarred values) [µM] | effect on differentiation and activity of osteoclasts [2] | binding to bone substrate / bone mineral [3] | IC50 (MDA-MB231 cells; Exp.1, unstarred values) [µM] | EC50 (MDA-MB231TXSA cells; Exp.2, * denotes EC50 value, read-out: EC50 value (starred) MB231-TXSA) [µM] | inhibition of resorption on pre-loaded substrate ([2]; pre-loaded, washed, zoledronic acid as control, FIG. 5) |
| --- | --- | --- | --- | --- | --- | --- | --- | --- | --- | --- | --- |
| Cc1c(O)cc2c(c1C)O[C@](C)(CCC[C@H](C)CCC[C@H](C)CCCC(C)C)CC2 [γ-toc, γ-tocopherol, reference compound] | significant increase in trabecular bone volume | inhibited bone resorption | 312 | 55.7 | 97.4 | 233 | inhibitory effect on the differentiation and activity of osteoclasts | not | – | – | – |
| CCOP(=O)(OCC)C(CCC(=O)Oc1cc2c(c(C)c1C)OC(C)(CCCC(C)CCCC(C)CCCC(C)C)CC2)P(=O)(OCC)OCC (centres unmarked) [γ-toc-bpp(OEt), γ-tocopheryl bisphosphonic ester] | significant increase in trabecular bone volume | inhibited bone resorption | – | 49.7 | 79.3 | – | retains the inhibitory activity on osteoclast differentiation and bone resorption | selectively bound the substrate | 124 | 189 | inhibited resorption to an extent comparable with that seen with zoledronic acid |
